Experiments:
[1] = tested on: P-selectin; assay: P-Selectin Adhesion Receptor Binding (cell-free ELISA, inhibition of P-selectin binding to immobilized sulfatides)
Description: P-selectin (GMP140, granule membrane protein-140, PADGEM, or CD62) is a calcium-dependent transmembrane protein found in alpha granules of endothelial cells and platelets. It is an inducible selectin produced on activated endothelium and platelets which recognize alpha(2-3)sialylated and alpha(1-3)fucosylated lactosaminoglycans which include the sequence, Lewis x (Zhou et al., J. Cell. Biol., (1991) 115 (2): 557-564) and sulfatides (3-sulfated galactosyl ceramides, Aruffo, et al., Cell (1991) 67: 35-44). P-selectin may be responsible for the initial adhesion events between endothelium and neutrophils as evidenced by leukocyte rolling induced by P-selectin in flow cells (Lawrence, M., and T. Springer, Cell (1991) 65: 859-873).
Based on the availability of soluble forms of P-selectin prepared as described by Aruffo, A., et al., Cell, 67, 35-44 (1991), a binding ELISA based assay modified from Foxall, et al., J., Cell Biol., 117, 895-902 (1992) was developed to measure inhibitors of P-selectin binding to immobilized sulfatides. Such inhibitors were tested in the assay described below.
0.1 ml of sulfatide (SIGMA) at 1 μg/ml in MeOH was added to 48 wells of a 96-well ELISA plate (ProBind, Falcon) and allowed to dry overnight at room temperature. Another set of 48 wells were incubated with the solvent (methanol, Fisher Scientific). The next day the antigen/solvent coated plates were blocked for 1.5 hours at room temperature with 5% BSA (ICN) in buffer containing 20 mM Hepes, 1 mM CaCl2 and 0.15M NaCl, pH 8.0. Wild type P-selectin was first mixed with HRP-conjugated goat anti-human IgG (1:5000 dilution, Fisher Scientific), and incubated for 30 minutes at 37° C. in buffer containing 20 mM Hepes, 0.15M NaCl, 1% BSA and 1 mM CaCl2, pH 8.0 prior to addition to the BSA blocked plates. Following the 30 minute preincubation, the fusion protein-HRP conjugate immunocomplexes were incubated on the blocked antigen coated plates for 45 minutes at 37° C. in the presence or absence of the test compounds and then washed to remove any unbound proteins. Bound complexes were detected by addition of substrate buffer (95 mM NaOAc.3H2 O, 5 mM citric acid monohydrate, 1.4 mM urea/H2 O2) containing 3, 3', 5, 5' Tetramethylbenzidine (SIGMA). Reactions were stopped by the addition of 3N sulfuric acid and the absorbance read on an ELISA reader at dual wavelengths 450 and 630 nm. The efficacy of these compounds was compared to that of sulfatide (positive control) or to MeOH (negative control). The data is obtained as percent inhibition of specific binding [formula] and a plot of dose vs. percent inhibition of Rg binding is generated in which IC50 (μM) is calculated and reported as cell free data in Table 1.

[2] = tested on: reverse passive Arthus reaction in rats; assay: Reverse Passive Arthus Reaction in Rats (RPA); type: in vivo, Male Sprague Dawley rats; design: key: NS: no significant inhibition at 3 mg; conditions: rat, single IV dose 3 mg, 4 hours; for RPA VP % Inhib. (vascular permeability): 125I-BSA plasma extravasation into skin; for RPA MPO % Inhib. (myeloperoxidase, neutrophil accumulation): skin MPO activity
Description: The reverse passive Arthus reaction in rats is a modification of the method by Mulligan et al., as described in J. Clin. Invest., (1991) 88: 1396-1406. This is an experimental model in which the interaction of antigen-antibody complexes and complement leads to a severe vasculitis that is associated with edema, induration, erythema and hemorrhage. The interaction between the antigen-antibody complexes and complement leads to a localized influx of neutrophils. These neutrophils release a variety of mediators that are associated with tissue damage and vascular permeability. The localized inflammatory reaction is measured using different techniques i.e., vascular permeability and neutrophil influx which is evaluated both biochemically and microscopically.
Male Sprague Dawley specific pathogen-free rats with jugular vein cannulae (280-320 g, Hill Top Labs, Pa.) are used in these studies. Animals are acclimated for at least 1 day and individually housed in stainless steel cages. The dorsal region of the rats is closely clipped 2 days prior to the experiments and divided into 4 sites on each side of the midline. Prior to all injections the rats are sedated with 0.4 ml per 300 gm rat of ketamine/rompun [1000 mg (10 ml) of ketamine HCL is mixed with 40 mg (2.0 ml) Rompun] administered IP and or inhalation anesthesia with metafane (methoxyflurane).
Bovin Serum Albumin (BSA) and rabbit polyclonal IgG rich in anti-BSA are purchased from Sigma Chemical Co. (St. Louis, Mo.). Radiolabelled ^125 I-BSA (spAct 1-5 μCi/μg) is purchased from Dupont NEN (Boston, Mass.).
Each rat is administered intradermal (ID) injection of (0.4 mg, 0.6 mg and 0.8 mg) anti-BSA in a volume of 100 μl per injection in normal saline. The ID injections are randomized near the mid dorsal region on both sides of the back bone. Immediately after the ID injections of the anti-BSA, the rats are administered intravenous (IV) injections of BSA (10 mg in 1.0 ml) in normal saline containing ^125 I labeled BSA (1 μCi/ml BSA or 5.0 μCi/kg body wt) for quantification of dermal vascular injury. Anti-inflammatory agents such as inhibitors of adhesion molecules of the present invention are administered IV at a single dose of 3 mg immediately after BSA. Four (4) hours after the IV injection of BSA, the rats are anesthetized with metafane and 2 to 3 ml of blood is withdrawn via the cannula into an anticoagulant containing (EDTA or Heparin) tube and plasma separated and saved for neutrophil and albumin quantitation. The rats are killed and the skin surrounding the injection site (15 mm diameter) is punched out and weighed. The skin samples and a fixed volume of plasma (0.1 to 1.0 ml) is analyzed in a gamma-counter for ^125 I content. Skin samples from the contralateral side are processed and analyzed for myeloperoxidase activity (MPO) as a measure of neutrophil accumulation. As needed, samples are also processed for histological evaluation of the reacted sites.
Vascular Permeability (VP)
The calculation of the plasma protein exudation into skin is made by determining the radioactivity in the tissue and relating this to the level of radioactive albumin in the blood at the time of sacrifice. […] [formula]
Percent inhibition of the test compound at 3 mg was determined as follows: [formula] Myeloperoxidase (MPO)
MPO is located in the azurophil granules of polymorphonuclear leukocytes (PMN). Because of its abundance in these cells (5% dry weight), this enzyme is used as a marker for tissue neutrophil content. For tissue MPO content, the method of Bradley, et al., was used as described in J. Invest. Dermatol. (1982) 78: 206-209. Biopsies from each treatment group were placed in plastic tubes (15×100 mm) containing 10 ml of 0.5% hexadecyltrimethylammonium bromide (HTAB)in 0.05M potassium phosphate buffer pH 6.0. The tissue was then homogenized with a Brinkmann Polytron homogenizer (10s). […]

Row | Structure (SMILES) | IC50 [1] [nM] | RPA VP % Inhib. (vascular permeability) [2] | RPA MPO % Inhib. (myeloperoxidase, neutrophil accumulation) [2]
1 | CCCCCCCCCCCCC/C=C/[C@@H](OC(=O)c1ccccc1)[C@H](CO[C@H]1O[C@H](COCC(=O)O)[C@H](OCC(=O)O)[C@H](OC(=O)c2ccccc2)[C@H]1OC(=O)c1ccccc1)NC(=O)CCCCCCCCCCCCCCC [Example 2, (2S,3R,4E)-3-Benzoyloxy-2-hexadecanoylamino-1-[2,3-di-O-benzoyl-4,6-di-O-carboxymethyl-α-D-galactopyranosyloxy]-4-octadecene] | 920 | > 73% | > 99%
2 | CCCCCC/C=C/[C@@H](OC(=O)c1ccccc1)[C@H](CO[C@H]1O[C@H](COCC(=O)O)[C@H](OCC(=O)O)[C@H](OC(=O)c2ccccc2)[C@H]1OC(=O)c1ccccc1)NC(=O)CCCCCCCCC(=O)OC [Example 8, (2S,3R,4E)-3-Benzoyloxy-2-(9-methoxycarbonyl-nonanoylamino)-1-(2,3-di-O-benzoyl-4,6-di-O-carboxymethyl-α-D-galactopyranosyloxy)-4-undecene] | > 50000 | 9% | 22%
3 | CCCCCCCCCCCCC/C=C/[C@@H](OC(=O)c1ccccc1)[C@H](CO[C@H]1O[C@H](COCC(=O)O)[C@H](OCC(=O)O)[C@H](O)[C@H]1OC(=O)c1ccccc1)NC(=O)CCCCCCCCCCCCCCC [Example 14, (2S,3R,4E)-3-Benzoyloxy-2-hexadecanoylamino-1-[2-O-benzoyl-4,6-di-O-carboxymethyl-α-D-galactopyranosyloxy]-4-octadecene] | 700 | 32% | 13%
4 | CCCCCCCCCCCCC/C=C/[C@@H](OC(=O)c1ccccc1)[C@H](CO[C@@H]1O[C@H](COCC(=O)O)[C@H](OCC(=O)O)[C@H](OC(=O)c2ccccc2)[C@H]1OC(=O)c1ccccc1)NC(=O)CCCCCCCCCCCCCCC [Example 16, (2S,3R,4E)-2-Hexadecanoylamino-3-benzoyloxy-1-(4,6-di-O-carboxymethyl-2,3-di-O-benzoyl-β-D-galactopyranoside)-4-octadecene] | 3500 | NS | NS
5 | CCCCCCCCCCCCC/C=C/[C@@H](OC(=O)c1ccccc1)[C@H](CO[C@@H]1O[C@H](COCC(=O)O)[C@H](OCC(=O)O)[C@H](OC(=O)c2ccccc2)[C@H]1O)NC(=O)CCCCCCCCCCCCCCC [Example 18, (2S,3R,4E)-3-Benzoyloxy-2-hexadecanoylamino-1-[3-O-benzoyl-4,6-di-O-carboxymethyl-β-D-galactopyranosyloxy]-4-octadecene] | < 30 | 73.6% | 98%

— US5686426A, “Dicarboxymethylated glycolipid derivatives as cell adhesion inhibitors” (Bristol-Myers Squibb Company, priority 1994, dated 1997)
